According to patent US6821962B2, “Quinoline and quinoxaline compounds which inhibit platelet-derived growth factor and /or p56lck tyrosine kinases” (Aventis Pharmaceuticals Inc., priority 1997, dated 2004):
Structures can show the parent of a compound that is named as a salt.

Tested on: not given
Details: not given

| Compound | melting point |
| --- | --- |
| COc1cc2ncc(NC3CCCCC3)nc2cc1OC [Example 3, 2-cyclohexylamino-6,7-dimethoxyquinoxaline] | 188 to 189.5 °C |
| c1ccc(Nc2cnc3cc(O[C@@H]4CCOC4)ccc3n2)cc1 [Example 9, Phenyl-[6-(tetrahydrofuran-3-(R)-yl-oxy)quinoxalin-2-yl]amine] | 173 to 175 °C |
| CC(C)Oc1ccc2nc(Nc3ccccc3)cnc2c1.Cl | 205 to 210 °C (dec.) |
| COc1cc2ncc(N[C@@H]3C[C@H]4CC[C@@H]3C4)nc2cc1OC [Example 22, (1R,2R,4S)-(+)-Bicyclo[2.2.1]hept-2-yl-(6,7-dimethoxyquinoxalin-2-yl)-amine] | 184 to 186 °C |
| COc1cc2ncc(OC3CCCCC3)nc2cc1OC1CCCCC1 [Example 10, 2,7-Bis-cyclohexyloxy-6-methoxy-quinoxaline] | 75 to 78 °C |
| Oc1ccc2nc(Nc3ccccc3)cnc2c1 [Example 8, 2-Anilino-6-quinoxalinol] | 211 to 213 °C |
| COc1cc2ncc(CNC3CCCCC3)nc2cc1OC (as salt: HCl) [Example 11, Cyclohexyl-(6,7-dimethoxyquinoxalin-2-ylmethyl)-amine] | 185 to 190 °C (dec.) |
| COc1cc2cc(NCC(C)(C)CO)cnc2cc1OC [Example 13, 3-(6,7-Dimethoxyquinolin-3-yl-amino)-2,2-dimethyl-propan-1-ol] | 170 to 173.5 °C |
| COc1cc2ncc(NC3CCCCC3)nc2cc1N1CCOCC1 [Example 14, Cyclohexyl-(6-methoxy-7-morpholin-4-yl-quinoxalin-2-yl)-amine] | 194 to 196 °C |

Target: Lck (Homo sapiens, UniProt P06239)
Sequence (P06239 whole entry, species assumed): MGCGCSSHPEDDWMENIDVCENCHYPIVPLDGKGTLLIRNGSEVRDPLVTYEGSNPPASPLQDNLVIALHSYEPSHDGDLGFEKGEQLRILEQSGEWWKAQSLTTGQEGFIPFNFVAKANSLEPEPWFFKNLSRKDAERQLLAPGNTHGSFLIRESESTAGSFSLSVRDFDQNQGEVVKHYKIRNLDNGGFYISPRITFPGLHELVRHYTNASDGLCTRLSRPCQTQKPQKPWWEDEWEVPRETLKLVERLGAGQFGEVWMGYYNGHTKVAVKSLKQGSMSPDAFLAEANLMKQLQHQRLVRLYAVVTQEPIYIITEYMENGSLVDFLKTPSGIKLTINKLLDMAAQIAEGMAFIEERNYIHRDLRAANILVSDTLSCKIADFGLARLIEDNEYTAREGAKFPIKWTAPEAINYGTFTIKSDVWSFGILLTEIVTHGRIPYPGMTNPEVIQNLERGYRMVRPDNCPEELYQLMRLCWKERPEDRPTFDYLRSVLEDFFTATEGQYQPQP
Details: background, literature report; cited from earlier work

| Compound | potency against Lck (in words) |
| --- | --- |
| Cc1ccc(-c2nn(C(C)(C)C)c3ncnc(N)c23)cc1 [PP1] | low nanomolar |

Target: Fyn (Homo sapiens, UniProt P06241)
Sequence (P06241 whole entry, species assumed): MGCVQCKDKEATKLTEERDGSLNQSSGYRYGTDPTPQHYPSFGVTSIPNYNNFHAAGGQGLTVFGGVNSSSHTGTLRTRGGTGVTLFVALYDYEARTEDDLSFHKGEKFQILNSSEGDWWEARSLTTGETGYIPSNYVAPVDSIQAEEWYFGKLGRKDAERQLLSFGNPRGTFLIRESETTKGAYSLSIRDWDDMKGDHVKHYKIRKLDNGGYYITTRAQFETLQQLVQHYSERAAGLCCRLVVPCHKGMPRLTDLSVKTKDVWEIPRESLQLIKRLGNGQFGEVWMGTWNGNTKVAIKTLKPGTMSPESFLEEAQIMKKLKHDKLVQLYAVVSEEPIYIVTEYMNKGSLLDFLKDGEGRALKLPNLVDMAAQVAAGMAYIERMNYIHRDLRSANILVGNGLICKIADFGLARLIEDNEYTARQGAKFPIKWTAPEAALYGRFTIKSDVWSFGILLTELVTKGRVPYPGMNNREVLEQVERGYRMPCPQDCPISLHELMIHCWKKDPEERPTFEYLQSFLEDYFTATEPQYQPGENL
Details: background, literature report (Hanke et al.); cited from earlier work

| Compound | potency against Fyn (in words) |
| --- | --- |
| Cc1ccc(-c2nn(C(C)(C)C)c3ncnc(N)c23)cc1 [PP1] | low nanomolar |
